Consider 17 compounds from article PMC7553701 (Toxicological Sciences, 2020).

The structures appear in SMILES notation. Values after ≈ are worked out from the molar mass of the structure shown. “Also recorded” adds a separate entry of the source. Like-named read-outs stand apart in the source and are kept apart here. Bounds are passed on as bounds.

The subject of series [1] is NRF2. As to the kind of experiment: HEK cell CYP450-dependent versus -independent NRF2 stabilization assay. The series is classed as cell-based, human. The note with it: for NRF2 protein level in noninduced cells: HEK293/CYP cells without Dox; for NRF2 protein level in cells expressing other CYP isoforms: HEK293 cells expressing the other 7 CYP isoforms; for NRF2 activation with and without CYP450 expression: HEK-CYP cell lines, [− Dox] and [+ Dox]; for NRF2 activation: HEK Cyp3A4 and parental cell lines, up to 90 µM.

For series [2], the system named is NRF2/Keap1 and NRF1 coregulated gene network in rat liver. The note with it: for BA-LRA score / BA-LRA outcome, day 1 single dose study: rat; for rat BA-LRA result: in vivo rat liver, threshold 0.22; for BA-LRA outcome, day 1 single dose study: day 1 single dose sample collection; for maximum daily dose (boundary) predicted from BA-LRA score: clinical daily dose.

The subject of series [3] is rat liver. Briefly: BA-LRA score calculated from Open TG-GATEs Affymetrix GeneChip data. The series is classed as in vivo. Particulars: 600 mkd, 24 h, Affymetrix platform; ref Igarashi et al., 2015.
Series [4] has as its system human hepatocytes. Briefly: Covalent protein binding. The note with it: radiolabeled drug. It is filed as in vitro ADME.
Series [5] has as its system rat. Briefly: Histopathology, clinical chemistry and tolerability in short-term rat studies. The series is classed as in vivo. The note with it: oral gavage, high dose 500–750 mkd.
A short description of series [6]: Biliary excretion. The series is classed as cell-based. Particulars: human HepatoPac cultures, plasma or biological fluid.
Series [7] relates to Dog. Briefly: 1-month dog toxicology study. It is filed as in vivo. Particulars: high dose with excessive body weight loss.
Series [8] concerns human HepatoPac. Particulars: ref Hafey et al., unpublished data, cited from earlier work.
Series [9] has as its system patients. Particulars: ref Hargreaves and Olesen, 2019, cited from earlier work.
Series [10] can be described thus: Clinical studies: liver safety and exposure. Particulars: human, in vivo, 900 mg.
For series [11], the target named is Cyp3A4 (Homo sapiens, UniProt P08684, DEL224-224/T224I/V225I). Briefly: Cyp3A4 degradation in HEK Cyp3A4 cell line. The series is classed as cell-based. The note with it: up to 90 µM.
Series [12] deals with rat HepatoPac. As to the kind of experiment: Urea synthesis in rat HepatoPac cultures. Particulars: 9 days. It is filed as cell-based.
Series [13] concerns human HepatoPac. As to the kind of experiment: Urea synthesis in human HepatoPac cultures. The series is classed as cell-based. Particulars: 9 days of exposure.
Series [14] relates to HepG2. The note with it: 24 h, HepG2 glucose-galactose shift; ref Xu et al., 2019; cited from earlier work.
Series [15] concerns Mouse. As to the kind of experiment: 6-month mouse toxicology study. It is filed as in vivo. Particulars: 6 months, highest dose tested.
Series [16] deals with NHP. Briefly: 9-month NHP toxicology study. It is filed as in vivo. Particulars: 9 months, highest dose tested.
Series [17] relates to rat. Briefly: 6-month rat toxicology study. The series is classed as in vivo. Particulars: 6 months, highest dose tested.
Series [18] deals with BSEP. The note with it: siRNA BSEP KD rat; ref Li et al., 2019; cited from earlier work.
Series [19] relates to human HepatoPac. As to the kind of experiment: In vitro BA-LRA in human HepatoPac. It is filed as cell-based. The note with it: at 50 µM.
The test system of series [20] is rat hepatocyte micropatterned coculture model (HepatoPac). As to the kind of experiment: In vitro BA-LRA in rat HepatoPac. It is filed as cell-based. Particulars: 9 days, at 50 µM.
For series [21], the system named is bile salt export pump (BSEP). As to the kind of experiment: Bile salt export pump. The series is classed as biochemical. Particulars: modeling a dose of 280 mg; ref Hafey et al., unpublished data.

Regarding `CC(=O)Nc1ccc(O)cc1` [Acetaminophen], the “NRF2 protein level in noninduced cells” value in series [1] (6 h) is reported as “not apparent”. Further, the “NRF2 protein level in cells expressing other CYP isoforms” value in series [1] is “not apparent”. For the same compound, the BA-LRA score in series [2] (at 24 h (Figs. 2 and 3)) is reported as 0.54. Moreover, the “BA-LRA score calculated from TG-GATEs data” value in series [3] is listed as 0.32.
As for `CC1(C)CC[C@]2(C(=O)O)CC[C@]3(C)[C@H](C(=O)C=C4[C@@]5(C)C=C(C#N)C(=O)C(C)(C)[C@@H]5CC[C@]43C)[C@@H]2C1` [Bardoxolone], in series [1], the “NRF2 activation with and without CYP450 expression” value was “induced NRF2 activation in a similar fashion under both [− Dox] and [+ Dox] conditions”.
As for `CN/C(=N/CCSCc1nc[nH]c1C)NC#N` [Cimetidine], in [4], the “covalent protein binding in human hepatocytes” value (shortened to “covalent protein binding”) is given as “high CPB”.
On to `Clc1ccccc1C(c1ccccc1)(c1ccccc1)n1ccnc1` [Clotrimazole], for which the “tolerability of high repeat daily doses” value in series [5] was “not tolerated”.
For `CN1CCN(C2=Nc3cc(Cl)ccc3Nc3ccccc32)CC1` [Clozapine], in series [2], the “rat BA-LRA result” value is recorded as “significant BA-LRA signal” and the “BA-LRA outcome, day 1 single dose study” value was “BA-LRA positive”.
Regarding `O=C(CN1C(=O)C2(CCCC2)NC[C@H]1c1cc(F)cc(F)c1)Nc1ccc2c(c1)C[C@@]1(C2)C(=O)Nc2ncccc21` [MK-3207], the concentration in solution in series [6] (solubility) came to 50 µM (≈ 27.9 µg/mL). Also, the “Liver Findings” value in [7] is “Slight periportal vacuolation”; in [15] it was “No liver safety signal at Highest Dose tested”; in [16] it was “No liver safety signal at Highest Dose tested”; in series [17], “No liver safety signal at Highest Dose tested”. In series [8] (50 µM), the “biliary excretion of taurocholic acid” value was “no significant impact”. In addition, the “incidence of subjects with ALT rises > 3-fold ULN” value in series [9] (Phase 2, 2 weeks, daily doses ≤ 100 mg (2/197)) is 1%. In [9] (among the 5 patients dosed above 500 mg daily), the “patients with > 20-fold ALT rises” value is reported as 3. Moreover, the AUC (usually the area under the concentration-time curve, a measure of exposure) in series [10] was determined as 60 µM·h. The NRF2 activation result in series [1] is given as “no CYP-dependent effect on NRF2 activation”. The Cyp3A4 degradation entry in series [11] is given as “clear dose-dependent effect on Cyp3A4 degradation”. Further, in series [12], the “urea (mito fx) / urea synthesis” value is given as “lack of urea synthesis inhibition; also recorded: no effect on urea to 80 µM”. Moreover, the urea synthesis result in [13] is “lack of urea synthesis inhibition”. The “maximum daily dose (boundary) predicted from BA-LRA score” value in series [2] is 300 mg. This compound also returned a BA-LRA score in series [2] (600 mkd × 4-day, median signature score) of 0.34. In series [14], the mitochondrial toxicity entry is on record as “No evidence for mitochondrial toxicity”.
On to `Cc1cnc(NC(=O)C2=C(O)c3ccccc3S(=O)(=O)N2C)s1` [Meloxicam], for which the “tolerability of high repeat daily doses” value in series [5] is given as “not tolerated”.
`C/N=C(\S)NCCSCc1[nH]cnc1C` [Metiamide]: the “rat BA-LRA result” value in series [2] is “did not show a significant rat liver BA-LRA signal”.
For `Cc1cc2c(s1)Nc1ccccc1N=C2N1CCN(C)CC1` [Olanzapine], the “BA-LRA outcome, day 1 single dose study” value in [2] is “InsfT”. Moreover, the “tolerability of high repeat daily doses” value in series [5] is on record as “not tolerated”.
For `Cc1c(-c2cnccn2)ssc1=S` [Oltipraz, oltipraz], in [1], the “NRF2 activation with and without CYP450 expression” value is on record as “gave similar results”.
For the compound `COc1ccc2[nH]c([S+]([O-])Cc3ncc(C)c(OC)c3C)nc2c1` (stereo not drawn) [Omeprazole], in series [1], the “NRF2 activation with and without CYP450 expression” value was “gave similar results”.
Consider `C[S+]([O-])CCCCN=C=S` (stereo not drawn) [Sulforaphane, sulforaphane], for which, in series [1], the “NRF2 activation with and without CYP450 expression” value is “gave similar results”.
With `CNS(=O)(=O)Cc1ccc2[nH]cc(CCN(C)C)c2c1` [Sumatriptan], the “covalent protein binding” value in series [4] is recorded as “high CPB”.
On to `Nc1c2c(nc3ccccc13)CCCC2` [Tacrine], for which the “tolerability of high repeat daily doses” value in series [5] is reported as “not tolerated”.
Regarding `O=C(N[C@@H]1CC[C@@H](c2cccc(F)c2F)CN(CC(F)(F)F)C1=O)N1CCC(n2c(=O)[nH]c3ncccc32)CC1` [Telcagepant], the “synergy expected for a BSEP inhibitor” value in series [18] is “no evidence for synergy”. Also, the “covalent protein binding” value in series [4] was “high covalent binding”. Besides, the “Biliary Excretion Index IC50” value in [8] is given as 16 µM. For the same compound, the NRF2 activation result in [1] is on record as “no effect was seen”. Further, the Cyp3A4 degradation entry in [11] is “no effect was seen”. Further, the “urea (mito fx) / urea synthesis” value was “no inhibition of urea synthesis” in series [12] and “no effect on urea to 100 µM” in series [12] (listed as MK-0974/Telcagepant). For the same compound, the urea synthesis result in series [13] is recorded as “no inhibition of urea synthesis”. Further, the “maximum daily dose (boundary) predicted from BA-LRA score” value in series [2] is given as < 600 mg. For the same compound, the BA-LRA score in series [2] (400 mkd × 4 days, peak score) amounted to 0.30. Moreover, the mitochondrial toxicity entry in [14] is listed as “unlikely mechanism of concern”. For the same compound, the “Liver Findings” value in series [15], in series [16] and in [17] was “No liver safety signal at Highest Dose tested” each time. For the same compound, the “in vitro BA-LRA transcriptional response to CRM responsive genes” value in [19] was “well exceeding the threshold of the assay”. Further, the “BA-LRA (in vitro)” value in [20] is “well exceeding the threshold of the assay”; in series [20] (listed as MK-0974/Telcagepant), > 0.2. The “tolerability of high repeat daily doses” value in series [5] is given as “poorly tolerated”. For the same compound, the “exposure multiple of BSEP IC50 above calculated free unbound liver inlet Cmax” value in series [21] is recorded as 17.5 fold.
Take `Clc1ccccc1CN1CCc2sccc2C1` [Ticlopidine]: the “NRF2 protein level in noninduced cells” value in [1] (6 h) is “not in noninduced cells”. The “NRF2 protein level in cells expressing other CYP isoforms” value in [1] is on record as “no effects on the NRF2 protein level”. In addition, the “concentration at which NRF2 activation begins” value in series [1] (induced [+Dox] CYP2C9 expressing HEK293 cells, 6 h) was “approximately 25 µM”.
In the case of `C[C@@H]1[C@H](c2ccccc2)C[C@H](NC(=O)c2cnc3c(c2)C[C@@]2(C3)C(=O)Nc3ncccc32)C(=O)N1CC(F)(F)F` [Ubrogepant], the “clinical liver safety profile” value in [9] (clinical trials) is recorded as “superior clinical liver safety profile”.
